Source: patent US20160263189A1, “TREATMENT OF A NEURODEGENERATIVE DISEASE OR DISORDER” (ACADIA Pharmaceuticals Inc., priority 2013, published 2016)

Tests used:
Ret = Ret immunolabeling in the SNc of 6OHDA-lesioned rats; format: in vivo, Sprague-Dawley rats; details: 1 mg/kg/day subcutaneously for 28 days starting 3 days after bilateral 6OHDA infusion into the SNc
Excerpt: Sprague-Dawley rats received saline infusions (denoted sham) or bilateral infusions of 6OHDA into the SNc (denoted lesion) as described (McFarland et al., 2013). […] A), RET positive cells expressed as % of sham; B), sham; C), vehicle treated lesioned animals; D) bexarotene treated lesioned animals. Shown are representative images of substantia nigral tissue immunolabeled for Ret.

[1] = tested on: primary cultures of dopaminergic neurons previously exposed to MPP+; experiment: TH positive neurons in primary cultures of dopaminergic neurons after MPP+ injury
[2] = tested on: primary cultures of dopaminergic neurons previously exposed to alpha-synuclein (α-syn); experiment: TH positive neurons in primary cultures of dopaminergic neurons exposed to alpha-synuclein; format: cell-based, rat; details: for increase in TH positive neurons over the α-synuclein alone condition: α-synuclein peptide 250 nM, 96 h; for survival of TH positive neurons compared to the control condition: neurons treated with alpha-synuclein
Experimental: Cultured neurons were treated as described above. On day 7, the media was removed, and fresh media with the α-synuclein peptide (250 nM) was added. On day 8, the media was removed, and fresh media with the α-synuclein peptide (250 nM) and the indicated drug treatments was added.
Cultured neurons were treated with alpha-synuclein as described above.

Molecule | RET expression relative to sham animals (Ret) | RET positive cells in the SNc (expressed as % of sham) (Ret; vs Lesion/Veh, p<0.05) | increase in TH positive neurons over the MPP alone condition ([1]; 5 nM bexarotene alone) | % of TH positive cells compared to cells treated with MPP+ alone ([1]; 0.3, 1 or 3 nM bexarotene alone, 24 h MPP+ injury (4 μM), drugs for 48 h) | increase in TH positive neurons over the α-synuclein alone condition ([2]; bexarotene alone 10 nM) | survival of TH positive neurons compared to the control condition ([2]; bexarotene alone 100 nM) | increase in TH positive neurons over the MPP alone condition ([1]; 2 ng/ml GDNF alone) | increase in TH positive neurons over the α-synuclein alone condition ([2]; GDNF alone 12.5 ng/ml) | survival of TH positive neurons compared to the control condition ([2]; GDNF alone 100 ng/ml)
C=C(c1ccc(C(=O)O)cc1)c1cc2c(cc1C)C(C)(C)CCC2(C)C [bexarotene, Bexarotene] | increased RET expression above the levels in the sham animals | reversed the loss of RET positive cells | 9% | not able to significantly increase | 8% | 88% |  |  | 
GDNF: glial-cell-line-derived neurotrophic factor, a trophic factor (protein, UniProt P39905 78-211, looked up) Glial cell line-derived …: SPDKQMAVLPRRERNRQAAAANPENSRGKGRRGQRGKNRGCVLTAIHLNVTDLGLGYETKEELIFRYCSGSCDAAETTYDKILKNLSRNRRLVSDKVGQACCRPIAFDDDLSFLDDNLVYHILRKHSAKRCGCI |  |  |  |  |  |  | 3% | 8% | 96%
